Assay results: ChEMBL document CHEMBL3045905, “Synthesis and evaluation of curcumin analogues as cytotoxic agents” (Med Chem Res, 2010)
Activity calls are given as the source filed them. The calls are words filed in the database; no cut-off is given here.

Assays:
[1] = Cytotoxicity against Mus musculus (mouse) EAC assessed as cell viability by trypan blue exclusion assay; assay type: functional, Ehrlich
[2] = Antitumor activity against Mus musculus (mouse) EAC xenografted in Mus musculus (mouse) assessed as increase in mean survival time at 20 mg/kg/day, ip after 9 days (reference value: 9.1 days); assay type: functional, Ehrlich; conditions: route intraperitoneal
Ehrlich [3] = assay: Antitumor activity against Mus musculus (mouse) EAC xenografted in Mus musculus (mouse) assessed as normalization of WBC level at 20 mg/kg/day, ip measured on day 14 relative to untreated control; assay type: functional, organism-based
[4] = Antitumor activity against Mus musculus (mouse) EAC xenografted in Mus musculus (mouse) assessed as normalization of hemoglobin level at 20 mg/kg/day, ip measured on day 14 (reference value: 8.7 g/dl); assay type: functional, Ehrlich; conditions: route intraperitoneal
[5] = Antitumor activity against Mus musculus (mouse) EAC xenografted in Mus musculus (mouse) assessed as decrease in tumor number at 20 mg/kg/day, ip measured on day 14 by Giemsa staining (reference value: 220 million/ml); assay type: functional, Ehrlich; conditions: route intraperitoneal
[6] = Antitumor activity against Mus musculus (mouse) EAC xenografted in Mus musculus (mouse) assessed as normalization of hematocrit at 20 mg/kg/day, ip measured on day 14 (reference value: 35.5%); assay type: functional, Ehrlich; conditions: route intraperitoneal
Mus musculus [7] = assay: Toxicity in Mus musculus Swiss Albino (mouse) xenografted with Mus musculus (mouse) EAC assessed as increase in body weight at 20 mg/kg/day, ip measured on day 14; assay type: organism-based; parameters: route intraperitoneal; conditions: in vivo
[8] = Antitumor activity against Mus musculus (mouse) EAC xenografted in Mus musculus (mouse) assessed as normalization of hematocrit at 50 to 250 mg/kg/day, ip measured on day 14 (reference value: 35.5%); assay type: functional, Ehrlich; conditions: route intraperitoneal
Mus musculus [9] = assay: Toxicity in Mus musculus Swiss Albino (mouse) xenografted with Mus musculus (mouse) EAC assessed as increase in body weight at 50 to 250 mg/kg/day, ip measured on day 14; assay type: organism-based; parameters: route intraperitoneal; conditions: in vivo
Ehrlich [10] = assay: Antitumor activity against Mus musculus (mouse) EAC xenografted in Mus musculus (mouse) assessed as normalization of WBC level at 50 to 250 mg/kg/day, ip measured on day 14 relative to untreated control; assay type: functional, organism-based
[11] = Antitumor activity against Mus musculus (mouse) EAC xenografted in Mus musculus (mouse) assessed as normalization of hemoglobin level at 50 to 250 mg/kg/day, ip measured on day 14 (reference value: 8.7 g/dl); assay type: functional, Ehrlich; conditions: route intraperitoneal
[12] = Antitumor activity against Mus musculus (mouse) EAC xenografted in Mus musculus (mouse) assessed as increase in mean survival time at 50 to 250 mg/kg/day, ip after 9 days (reference value: 9.1 days); assay type: functional, Ehrlich; conditions: route intraperitoneal
[13] = Antitumor activity against Mus musculus (mouse) EAC xenografted in Mus musculus (mouse) assessed as decrease in tumor number at 50 to 250 mg/kg/day, ip measured on day 14 by Giemsa staining (reference value: 220 million/ml); assay type: functional, Ehrlich; conditions: route intraperitoneal

COc1cc(/C=C/c2cc(/C=C/c3ccc(O)c(OC)c3)n(N=O)n2)ccc1O showed an ED25 [1] of 6.7 mM.
For COc1cc(/C=C/C(=O)CC(=O)/C=C/c2ccc(O)c(OC)c2)ccc1O [CURCUMIN], the ED10 [1] was 3.4 mM and the ED25 [1] was 4.8 mM.
Work on COc1cc(/C=C/C(=O)/C(=N\Nc2ccc([N+](=O)[O-])cc2)C2=NC(=S)NC(c3ccc(O)c(OC)c3)C2)ccc1O (stereo not drawn) yielded an ED10 [1] of 2.9 mM.
For O=c1[nH]cc(F)c(=O)[nH]1 [FLUOROURACIL], the MST [2] was 16.7 days, the Activity (Ehrlich [3]) was “Active” and the Activity [4] was 10 g/dL. For the same compound, the Activity [5] was 123 ×10⁶ /ml, the Activity [6] was 42.3% and the Activity (Mus musculus [7]) was “Toxic”.
COc1cc(/C=C/c2cc(/C=C/c3ccc(O)c(OC)c3)n(NN)n2)ccc1O gave an ED25 [1] of 22.2 mM.
With COc1cc(C2CC(C(=NNc3ccc([N+](=O)[O-])cc3)C3=NNC(c4ccc(O)c(OC)c4)C3)=NN2)ccc1O (stereo not drawn) the ED25 [1] was 38.9 mM.
Work on COc1cc(/C=C/C(=O)C(=NNc2ccc([N+](=O)[O-])cc2)C(=O)/C=C/c2ccc(O)c(OC)c2)ccc1O yielded an ED10 [1] of 2.5 mM and an ED25 [1] of 2.8 mM.
For COc1cc(/C=C/c2cc(/C=C/c3ccc(O)c(OC)c3)[nH]n2)ccc1O [CURCUMIN PYRAZOLE], the Activity [8] was 41%, the ED25 [1] was 66.7 mM and the Activity (Mus musculus [9]) was “Toxic”. For the same compound, the Activity (Ehrlich [10]) was “Active”, the Activity [11] was 9.4 g/dL and the MST [12] was 14.6 days. It also gave an Activity [13] of 169.6 ×10⁶ /ml.
Compound COc1cc(/C=C/C(=O)/C(=N\Nc2ccc([N+](=O)[O-])cc2)C(=O)C(Br)C(Br)c2ccc(O)c(OC)c2)ccc1O (stereo not drawn) has an ED25 [1] of 3.2 mM.
COc1cc(C2C=C(C(=NNc3ccc([N+](=O)[O-])cc3)C3=CC(c4ccc(O)c(OC)c4)ON3)NO2)ccc1O (stereo not drawn) showed an ED25 [1] of 5.3 mM.
Compound COc1cc(/C=C/c2cc(/C=C/c3cc(/N=N/c4ccc(Cl)cc4)c(O)c(OC)c3)n(CO)n2)cc(/N=N/c2ccc(Cl)cc2)c1O has an ED25 [1] of 3.6 mM.
COc1cc(/C=C/C(=O)C(=NNc2ccc(Cl)cc2)C(=O)/C=C/c2ccc(O)c(OC)c2)ccc1O gave an ED25 [1] of 3.2 mM.
For COc1cc(/C=C/C(=O)C(=NNc2ccc(C)cc2)C(=O)/C=C/c2ccc(O)c(OC)c2)ccc1O, the ED10 [1] was 2.4 mM.
With COc1ccc(NN=C(C(=O)/C=C/c2ccc(O)c(OC)c2)C(=O)/C=C/c2ccc(O)c(OC)c2)cc1 the ED25 [1] was 3.4 mM.
COc1cc(C2CC(C(=NNc3ccc([N+](=O)[O-])cc3)C3=NC(=S)NC(c4ccc(O)c(OC)c4)C3)=NC(=S)N2)ccc1O (stereo not drawn) showed an ED25 [1] of 4.8 mM.
